These results are taken from patent publication US20200115417A1, “A CYCLIC PEPTIDE AND PHARMACEUTICAL COMPOSITION COMPRISING THE SAME FOR INHIBITING PROLIFERATION OF HEV” (priority 2018, published 2020).

The subject of data set [1] is p6 HEV expressing Huh7 cells. Description: MTT cell viability assay. Type of data set: cell-based, human. The note with it: 10 μM CP11 every alternate day for 6 days. As to the method: (§1) The genomic RNAs of p6 HEV and p6 HEV-Luc were synthesized in vitro and size/integrity was monitored by formaldehyde agarose gel electrophoresis. ORF4-Huh7 cell line were prepared as reported (48) and maintained in Dulbecco's modified eagle medium containing 10% fetal calf serum, 50 IU/ml penicillin and streptomycin in 5% CO2. 200 μg/ml hygromycin was added to the cells during routine maintenance. Cells were then electroporated with genomic RNAs of p6 HEV and p6 HEV-Luc in a 4 mm cuvette at 200 Volt, 950 μF and infinite resistance. Electroporated cells were maintained in complete media for 5 days prior to the treatment with CP11.
(§2) On 6th day post-electroporation/post-infection, HEV infection model was treated every alternate day with 10 μM of CP11 for 6 days followed by measurement of cell viability, quantification of replication of the viral genome and release of the progeny viruses.
Cell viability was measured by MTT [3-(4,5-dimethyl-2-thiazolyl)-2,5-diphenyl-2H-tetrazolium bromide] assay using cell titer 96 non-radioactive cell proliferation assay kit.
(In general: Tetrazolium assays rely on reduction of a dye to a coloured formazan, in cell work by metabolically active cells.)

For data set [2], the target named is T1, HEV ORF3 and human TSG101 proteins (Homo sapiens, UniProt Q99816).
T1 construct: made in house; host or cells: ORF3-his: E. coli BL21 (DE3); TSG101-myc: coupled in vitro transcription-translation (TNT T7 kit, Promega; rabbit reticulocyte lysate) from pGBKT7 TSG101
T1 sequence (Q99816 1-390): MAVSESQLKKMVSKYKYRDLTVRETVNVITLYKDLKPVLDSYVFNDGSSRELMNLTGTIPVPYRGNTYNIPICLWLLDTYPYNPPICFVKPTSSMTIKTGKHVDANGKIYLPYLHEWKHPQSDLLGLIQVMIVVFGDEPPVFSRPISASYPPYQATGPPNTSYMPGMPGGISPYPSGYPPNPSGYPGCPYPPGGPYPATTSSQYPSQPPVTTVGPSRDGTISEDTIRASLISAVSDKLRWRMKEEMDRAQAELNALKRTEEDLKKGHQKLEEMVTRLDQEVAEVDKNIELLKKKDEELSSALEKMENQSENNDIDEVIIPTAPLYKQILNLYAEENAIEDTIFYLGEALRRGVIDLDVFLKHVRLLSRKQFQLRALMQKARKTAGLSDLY
In words: In vitro His-pull down assay, ORF3-TSG101 interaction. Type of data set: binding. As to conditions: for interaction between ORF3 and TSG101: western blot. As to the method: (§3) pGBKT7 RdRp, TSG101 and ORF4 plasmids, in which coding sequence for RdRp, TSG101 and ORF4 is cloned under the control of the T7 promoter along with a N-terminal myc epitope tag was used for in vitro production of HEV RdRp, ORF4 and human TSG101 proteins. A coupled in vitro transcription-translation kit (TNT T7 kit) was used, following manufactures guidelines (Promega, Wis., USA). Aliquots of the TNT expressed proteins were mixed with 2× Laemelli buffer [125 mM Tris (pH 6.8), 4% SDS, 20% glycerol, 100 mM DTT and 0.02% bromophenol blue], incubated at 950 C for 5 minutes, resolved by SDS PAGE and western blotted with anti-myc antibody to confirm protein expression.
An in vitro His-pull down assay was performed to monitor whether cyclic peptide inhibits the interaction between HEV ORF3 and human TSG101 proteins. His tagged ORF3 protein was purified from E. coli BL21 (DE3) following previously described protocols (50). Ni-NTA super flow agarose (Thermo Scientific, Massachusetts, USA) bound ORF3-his was equally aliquoted into separate 1.5 ml tubes followed by addition of TNT generated mock lysate, RdRp-myc lysate, TSG101-myc lysate, ORF4-myc lysate and CP11 (1 μM or 10 μM) in the required combinations in phosphate buffered saline (PBS; 10 mM PO43-, 137 mM NaCl, 2.7 mM KCl) supplemented with protease inhibitor cocktail. Samples were incubated on a flip flop shaker at 4° C. for 1 hour, followed by three washes in PBS. 30p1 of 2× Laemelli buffer was added to the beads and incubated at 950 C for 5 minutes. Aliquots of the eluted proteins were resolved by SDS-PAGE and western blotting was done using anti-myc and anti-ORF3 antibodies.
Empty pGBKT7 vector was translated in parallel (denoted as mock lysate) to rule out non-specific cross reactivity of myc antibody with proteins present in the rabbit reticulocyte lysate. RdRp, TSG101 and ORF4 plasmid containing samples produced bands corresponding to their expected size (FIG. 1B). Two non-specific bands were detected in all samples (denoted by *). […]
(In general: A western blot detects proteins with antibodies after separation by electrophoresis.)

For data set [3], the system named is p6 HEV. In words: ELISA of viral capsid protein ORF2 in viruses released to culture medium. As to conditions: 10 μM CP11 treated samples; Huh7 cells. Type of data set: cell-based. The procedure:
(§4) For estimation of the amount of virus released to the culture medium, medium from the above samples were collected and clarified by centrifugation at 7197×g, 4° C. for 15 minutes. 8% PEG (polyethylene glycol) 6000 and 0.4 M NaCl (final concentration) was added to the clarified samples and the mixture was incubated at 0° C. for 16 hours, followed by centrifugation at 20,000×g for 30 minutes. The pellet was resuspended in PBS and RNA was isolated using QIAamp Viral RNA Mini kit. Intracellular RNA was isolated using TRI reagent (MRC, Ohio, USA), following manufactures protocol.
An ELISA was standardized using purified recombinant ORF2 protein (112-608aa region) as the antigen and a rabbit polyclonal anti-ORF2 antibody, which was earlier generated and characterized in our laboratory (48). Specificity of the assay was monitored by including appropriate controls such as rabbit preimmune serum and competition with the peptide, which was used to generate the antibody. […]
For ELISA mediated quantification of p6 HEV present in the culture medium, PEG 6000 precipitated virus was resuspended in PBS and coated onto the ELISA plate overnight at 4° C. […]

The test system of data set [4] is p6 HEV. Description: QRT-PCR of intracellular p6 HEV sense strand RNA. Type of data set: cell-based. The note with it: 10 μM CP11 every alternate day for 6 days; Huh7 cells; normalized to GAPDH. The procedure: as §1
On 6th day post-electroporation/post-infection, HEV infection model was treated every alternate day with 10 μM of CP11 for 6 days followed by measurement of cell viability, quantification of replication of the viral genome and release of the progeny viruses. […]
For measuring levels of p6 HEV sense RNA and host GAPDH RNA, cDNA was synthesized using random hexamers and Superscript III reverse transcriptase. For subsequent quantitative real time, FP of sequence “[…]” (SEQ ID NO:3) and RP of sequence “accgggacagcgtgga” (SEQ ID NO:4) were used for p6 HEV sense and FP of sequence “[…]” (SEQ ID NO:5) and RP of sequence “[…]” (SEQ ID NO:6) were used for host GAPDH RNA.

A further data set concerns ORF4 and ORF3. Description: In vitro His-pull down assay, ORF3-ORF4 interaction. Type of data set: binding, HEV. The note with it: 1 μM in the reaction mix; western blot. As to the method:
as §3
An in vitro His-pull down assay was performed to monitor whether cyclic peptide inhibits the interaction between HEV ORF3 and human TSG101 proteins. His tagged ORF3 protein was purified from E. coli BL21 (DE3) following previously described protocols (50). […]
Empty pGBKT7 vector was translated in parallel (denoted as mock lysate) to rule out non-specific cross reactivity of myc antibody with proteins present in the rabbit reticulocyte lysate. […] Two non-specific bands were detected in all samples (denoted by *). […]

The next data set deals with g-1 HEV. In words: Release of g-1 HEV from infected ORF4-Huh7 cells. Type of data set: cell-based. As to conditions: g-1 HEV clinical isolate, 10 μM CP11 every alternate day for 6 days. As to the method: For infection studies, the HEV infection model was prepared by infecting 4×10^5 ORF4-Huh7 cells with 8×10^6 genome copies of the g-1 HEV clinical isolate for one hour, followed by three times washing of infected cells in PBS and maintenance in complete media for 5 days prior to treatment with CP11.
as §2, §4

The subject of another data set is p6 HEV-Luc replicon. In words: p6 HEV-Luc replicon Gaussia luciferase assay. Type of data set: cell-based. The note with it: 10 μM CP11 for 48 hours; Huh7 cells; normalized to cell viability. As to the method: Possible effect of CP11 on HEV replication was investigated using a Huh7 cell-based model of p6 HEV replicon expressing luciferase. Luciferase assay was done through well-known methods. Briefly, Huh7 cells were electroporated with in vitro synthesized capped genomic RNA of p6 HEV-Luc and maintained in complete media for 5 days prior to the treatment with the cyclic peptide. 6th day post electroporation, 10 μM CP11 was added for 48 hours. Gaussia luciferase activity in the culture media was measured using Renilla luciferase assay kit (Promega, Wisconsin, USA). Luciferase values were normalized to that of the cell viability assay, and plotted as mean±SEM.
(In general: Replicon systems follow genome replication, usually without infectious particles.)

“Also recorded” adds a separate entry of the source. Where no end group is shown, it is not given here.

As to “CP11: Peptide 11 (CGWIYWNV; SEQ ID NO:1), cyclized and conjugated with the linear Tat peptide (CGRKKRRQRRRPPQ; SEQ ID NO:2) (also: peptide 11 cyclized, mode not given here, conjugated to linear Tat peptide, linkage not given here)”, in data set [1], the “cytotoxic effect (cell viability, MTT)” value is given as “ruled out the possible cytotoxic effect; also recorded: without showing any cytotoxicity”. Moreover, the “interaction between ORF3 and TSG101” value in data set [2] (1 μM in the reaction mix) is reported as “significantly reduced”; in data set [2] (10 μM of CP11 in the reaction mixture) it was “completely inhibited”. Moreover, in data set [2] (out of several cyclic peptides screened), the “inhibition of the interaction between ORF3 and TSG101 proteins, compared with other peptides” value is “most efficiently”. Moreover, the “ORF2 level in PEG 6000 precipitated virus from culture medium” value with p6 HEV [3] was “significantly less”. Also, in the data set with p6 HEV [4], the “viral sense strand RNA level in cells” value is reported as “significant increase”. Besides, the “interaction between ORF4 and ORF3” value with ORF4 and ORF3 is on record as “remains unaffected”. The “block of release of g-1 HEV” value in the data set with g-1 HEV was “approximately 90%”. In the data set with p6 HEV-Luc replicon, the “luciferase activity (viral replication/RNA stability)” value is listed as “no effect”.
